In patent US12371454B2, “Cyclic peptide compound having Kras inhibitory action” (priority 2019, dated 2025):
Starred links: 1 amine or outer side, 2 acyl side, 3 side chain; linkers in the order of their positions; H or OH if unused. Positions of bridges follow the written chain, without caps; N, C: chain ends. Non-standard residues stand in square brackets, D forms with d. Residues, ends and D or L forms follow the SMILES beside them. *: point of attachment. hPhe(3,5-F2-4-CF3) = N[C@@H](CCc1cc(F)c(C(F)(F)F)c(F)c1)C(=O)O; hPhe(3-Cl-4-CF3) = N[C@@H](CCc1ccc(C(F)(F)F)c(Cl)c1)C(=O)O; NMePhe(4-CF3) = CN[C@@H](Cc1ccc(C(F)(F)F)cc1)C(=O)O; hPhe(3,4-Cl2) = N[C@@H](CCc1ccc(Cl)c(Cl)c1)C(=O)O; NMeAbu(4,4,4-F3) = CN[C@@H](CC(F)(F)F)C(=O)O; NMedβ3hAla = C[C@H](CC(=O)[*:2])N(C)[*:1]; Pro(4,4-F2) = O=C(O)[C@@H]1CC(F)(F)CN1; Ala(cPent) = N[C@@H](CC1CCCC1)C(=O)O; NMeCha = CN[C@@H](CC1CCCCC1)C(=O)O; NMehLeu = CN[C@@H](CCC(C)C)C(=O)O; NMeChg = CN[C@H](C(=O)O)C1CCCCC1; NMeI = CC[C@H](C)[C@H](NC)C(=O)O; NMeD = CN[C@@H](CC(=O)O)C(=O)O; NMeL = CN[C@@H](CC(C)C)C(=O)O; NMeV = CN[C@H](C(=O)O)C(C)C; Pip = O=C(O)[C@@H]1CCCCN1; Morpholide = C1CN(*)CCO1; NMeA = CN[C@@H](C)C(=O)O; NMeAib = CNC(C)(C)C(=O)O; Piperidide = C1CCN(*)CC1; Pyrrolidide = C1CCN(*)C1; Ac5c = NC1(C(=O)O)CCCC1; Aze = O=C(O)[C@@H]1CCN1; Sar = CNCC(=O)O

target: T1, Kras and SOS1 (biotin-tagged human Kras loaded with GDP, His-tagged human SOS1) (Homo sapiens, UniProt P01116, G12D); assay: Protein-protein interaction inhibition between Kras and SOS1 (KrasGl2D-SOS PPI) using AlphaScreen; format: binding; details: AlphaScreen; biotin-tagged human Kras loaded with GDP, His-tagged human SOS1; read-out: KRAS G12D-SOS PPI IC50
T1 construct: made in house; host or cells: E. coli (stated for Kras only)
T1 sequence (P01116 1-188 isoform P01116-2 G12D): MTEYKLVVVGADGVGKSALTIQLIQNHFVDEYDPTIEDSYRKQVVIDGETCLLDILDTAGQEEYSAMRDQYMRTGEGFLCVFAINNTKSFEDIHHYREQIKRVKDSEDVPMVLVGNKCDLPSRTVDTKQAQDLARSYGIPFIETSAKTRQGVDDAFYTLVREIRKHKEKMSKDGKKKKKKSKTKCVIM
Summary of the method: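 Energy transfer from nickel-chelate donor beads bound to His-SOS1 to streptavidin acceptor beads bound to biotin-Kras, expressed in E. coli and loaded with GDP after purification, was monitored. Donors were excited at 680 nm; singlet oxygen reaching acceptors gave emission read at 520-620 nm.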

Row | SMILES | IC50 [nM]
1 | CC(C)C[C@H]1C(=O)N[C@@H](CC2CCCC2)C(=O)N(C)CC(=O)N(C)CC(=O)N(C)[C@@H](CC2CCCCC2)C(=O)N(C)CC(=O)N[C@@H](CCc2ccc(C(F)(F)F)c(Cl)c2)C(=O)N2CCC[C@H]2C(=O)NC2(CCCC2)C(=O)N(C)[C@@H](C(C)C)C(=O)N(C)[C@H](C(=O)N2CCCCC2)CC(=O)N1C [Compound 627] ([NMeL][Ala(cPent)][Sar][Sar][NMeCha][Sar][hPhe(3-Cl-4-CF3)]P[Ac5c][NMeV][NMeD]-Piperidide; lactam N-11) | 13
2 | CC[C@H](C)[C@@H]1NC(=O)[C@H](CC(F)(F)F)N(C)C(=O)C[C@@H](C(=O)N2CCCC2)N(C)C(=O)[C@H](C2CCCCC2)N(C)C(=O)C2(CCCC2)NC(=O)[C@@H]2CC(F)(F)CN2C(=O)[C@H](CCc2cc(F)c(C(F)(F)F)c(F)c2)NC(=O)CN(C)C(=O)[C@H](CC2CCCCC2)N(C)C(=O)CN(C)C(=O)CN(C)C1=O [Compound 1281] ([NMeAbu(4,4,4-F3)]I[Sar][Sar][NMeCha][Sar][hPhe(3,5-F2-4-CF3)][Pro(4,4-F2)][Ac5c][NMeChg][NMeD]-Pyrrolidide; lactam N-11) | 0.42
3 | CC[C@H](C)[C@@H]1NC(=O)[C@H](CC(C)C)N(C)C(=O)C[C@@H](C(=O)N2CCOCC2)N(C)C(=O)[C@H](C2CCCCC2)N(C)C(=O)C2(CCCC2)NC(=O)[C@@H]2CC(F)(F)CN2C(=O)[C@H](CCc2ccc(C(F)(F)F)c(Cl)c2)NC(=O)CN(C)C(=O)[C@H](CC2CCCCC2)N(C)C(=O)CN(C)C(=O)CN(C)C1=O [Compound 1194] ([NMeL]I[Sar][Sar][NMeCha][Sar][hPhe(3-Cl-4-CF3)][Pro(4,4-F2)][Ac5c][NMeChg][NMeD]-Morpholide; lactam N-11) | 0.52
4 | CC[C@H](C)[C@@H]1NC(=O)[C@H](C)N(C)C(=O)C[C@@H](C)N(C)C(=O)[C@H](CC(C)C)NC(=O)C(C)(C)N(C)C(=O)[C@H](CC(C)C)NC(=O)[C@H](CCc2ccc(C(F)(F)F)c(Cl)c2)NC(=O)CN(C)C(=O)[C@H](CC2CCCCC2)N(C)C(=O)[C@@H]2CCN2C(=O)CN(C)C1=O [Compound 1387] (cyclo([Aze][NMeCha][Sar][hPhe(3-Cl-4-CF3)]L[NMeAib]L[NMedβ3hAla][NMeA]I[Sar])) | 14
5 | CC[C@H](C)[C@@H]1NC(=O)[C@H](C)N(C)C(=O)C[C@@H](C)N(C)C(=O)[C@H](C2CCCCC2)N(C)C(=O)C2(CCCC2)NC(=O)[C@@H]2CCCN2C(=O)[C@H](CCc2ccc(C(F)(F)F)c(Cl)c2)NC(=O)CN(C)C(=O)[C@H](CC2CCCCC2)N(C)C(=O)CN(C)C(=O)CN(C)C1=O [Compound 1808] (cyclo([Ac5c][NMeChg][NMedβ3hAla][NMeA]I[Sar][Sar][NMeCha][Sar][hPhe(3-Cl-4-CF3)]P)) | 47
6 | CC[C@H](C)[C@@H]1NC(=O)[C@H](CCC(C)C)N(C)C(=O)C[C@@H](C(=O)N2CCCC2)N(C)C(=O)[C@H]([C@@H](C)CC)N(C)C(=O)C2(CCCC2)NC(=O)[C@@H]2CCCN2C(=O)[C@H](CCc2ccc(C(F)(F)F)c(Cl)c2)NC(=O)CN(C)C(=O)[C@H](Cc2ccc(C(F)(F)F)cc2)N(C)C(=O)[C@@H]2CCN2C(=O)[C@H](C)N(C)C1=O [Compound 1289] ([NMehLeu]I[NMeA][Aze][NMePhe(4-CF3)][Sar][hPhe(3-Cl-4-CF3)]P[Ac5c][NMeI][NMeD]-Pyrrolidide; lactam N-11) | 0.67
7 | CC[C@H](C)[C@@H]1NC(=O)[C@H](CC(C)C)N(C)C(=O)C[C@@H](C(=O)N2CCCCC2)N(C)C(=O)[C@H](C(C)C)N(C)C(=O)C2(CCCC2)NC(=O)[C@@H]2CCCN2C(=O)[C@H](CCc2ccc(Cl)c(Cl)c2)NC(=O)CN(C)C(=O)[C@H](CC2CCCCC2)N(C)C(=O)[C@@H]2CCCCN2C(=O)CN(C)C1=O [Compound 324] ([NMeL]I[Sar][Pip][NMeCha][Sar][hPhe(3,4-Cl2)]P[Ac5c][NMeV][NMeD]-Piperidide; lactam N-11) | 380
